Data from PMC8286840, “Identifying SARS-CoV-2 antiviral compounds by screening for small molecule inhibitors of Nsp3 papain-like protease” (Biochemical Journal, 2021).
Where a name gives a salt, the structure may show the parent alone. Read-outs that look alike come from different tables or passages of the source.

Legend:
[1] = molecular target: T1, SARS-CoV-2 PLpro (nsp3 1564–1878) (Severe acute respiratory syndrome coronavirus 2, UniProt P0DTD1); assay: biochemical; design: FRET-quenched peptide (Pro3) cleavage by PLpro, 10 min pre-incubation, slope over 20 min, normalised to no-compound control; settings: read-out: % of control remaining
[2] = molecular target: T1, SARS-CoV-2 PLpro (nsp3 1564–1878); assay: biochemical; design: FRET-quenched peptide (Pro3) cleavage by PLpro, 10 min pre-incubation, slope over 20 min, normalised to no-compound control; settings: read-out: % of control remaining; remark: listed apart in the source

SMILES: O=c1[nH]nc(Sc2ncc([N+](=O)[O-])s2)n1-c1ccc2c(c1)OCCO2 [BI 78D3 - 4-(2,3-Dihydro-1,4-benzodioxin-6-yl)-2,4-dihydro-5-[(5-nitro-2-thiazolyl)thio]-3H-1,2,4-triazol-3-one]
- remaining activity at 3.75 µM ([1]; Well no.=2684, high concentration screen): 97.1%
- remaining activity at 1.25 µM ([2]; Well no.=2684, low concentration screen): 95.6%

SMILES: CC(=O)NCCCC(=O)O [4-Acetamidobutanoic acid]
- remaining activity at 3.75 µM ([1]; Well no.=6149, high concentration screen): 106%
- remaining activity at 1.25 µM ([2]; Well no.=6149, low concentration screen): 110%

SMILES: CCCCCCCCOc1ccccc1C(=O)Nc1ccc(C(=O)OCC[N+](C)(CC)CC)cc1 [Otilonium Bromide]
- remaining activity at 3.75 µM ([1]; Well no.=4893, high concentration screen): 93.3%
- remaining activity at 1.25 µM ([2]; Well no.=4893, low concentration screen): 92.9%

SMILES: Cc1ccc(NC(=O)CCCCCC(=O)Nc2ccccc2N)cc1 [Pimelic Diphenylamide 106]
- remaining activity at 3.75 µM ([1]; Well no.=5991, high concentration screen): 99.4%
- remaining activity at 1.25 µM ([2]; Well no.=5991, low concentration screen): 101%

SMILES: CCc1cc2c(cc1CC)CC(NC[C@H](O)c1ccc(O)c3[nH]c(=O)ccc13)C2 [Indacaterol (maleate)]
- remaining activity at 3.75 µM ([1]; Well no.=8199, high concentration screen): 95%
- remaining activity at 1.25 µM ([2]; Well no.=8199, low concentration screen): 105%

SMILES: Cn1cnc([N+](=O)[O-])c1Sc1ncnc2[nH]cnc12 [Azathioprine]
- remaining activity at 3.75 µM ([1]; Well no.=111, high concentration screen): 100%
- remaining activity at 3.75 µM ([1]; Well no.=1834, high concentration screen): 97.6%
- remaining activity at 1.25 µM ([2]; Well no.=111, low concentration screen): 99.7%
- remaining activity at 1.25 µM ([2]; Well no.=1834, low concentration screen): 102%

SMILES: O[C@H]1[C@H]2[C@H](O)CCCN2C[C@H]1O [Swainsonine]
- remaining activity at 3.75 µM ([1]; Well no.=3176, high concentration screen): 100%
- remaining activity at 1.25 µM ([2]; Well no.=3176, low concentration screen): 97.3%

SMILES: O=C1c2ccccc2C(=O)c2c1ccc(O)c2O [Alizarin]
- remaining activity at 3.75 µM ([1]; Well no.=5284, high concentration screen): 95.1%
- remaining activity at 1.25 µM ([2]; Well no.=5284, low concentration screen): 94.6%

SMILES: CCN(C)C(=O)Oc1cccc([C@H](C)N(C)C)c1 [(2R,3R)-2,3-dihydroxybutanedioic acid compound with 3-[(1S)-1-(dimethylamino)ethyl]phenyl ethyl(methyl)carbamate (1:1)]
- remaining activity at 3.75 µM ([1]; Well no.=5811, high concentration screen): 98%
- remaining activity at 1.25 µM ([2]; Well no.=5811, low concentration screen): 96.9%

SMILES: C=CCc1ccc(O)c(-c2cc(CC=C)ccc2O)c1 [Magnolol]
- remaining activity at 3.75 µM ([1]; Well no.=3659, high concentration screen): 98.1%
- remaining activity at 1.25 µM ([2]; Well no.=3659, low concentration screen): 96.1%

SMILES: COc1ccccc1CN[C@H]1C2CCN(CC2)[C@H]1C(c1ccccc1)c1ccccc1 [CP-96345]
- remaining activity at 3.75 µM ([1]; Well no.=5867, high concentration screen): 96.7%
- remaining activity at 1.25 µM ([2]; Well no.=5867, low concentration screen): 97.7%

SMILES: CSC(=N)N [S-Methylisothiourea hemisulfate]
- remaining activity at 3.75 µM ([1]; Well no.=924, high concentration screen): 103%
- remaining activity at 1.25 µM ([2]; Well no.=924, low concentration screen): 108%

SMILES: CS(=O)(=O)c1ccc(-c2cnc(N)c(C(=O)Nc3ccccc3)n2)cc1 [VE-821]
- remaining activity at 3.75 µM ([1]; Well no.=4790, high concentration screen): 96.4%
- remaining activity at 1.25 µM ([2]; Well no.=4790, low concentration screen): 97.8%

SMILES: O=C(O)CCC/C=C\C[C@@H]1[C@H](CNNC(=O)Nc2ccccc2)[C@H]2CC[C@@H]1O2 [SQ-29548]
- remaining activity at 3.75 µM ([1]; Well no.=4526, high concentration screen): 94.8%
- remaining activity at 1.25 µM ([2]; Well no.=4526, low concentration screen): 92.8%

SMILES: Cc1nc2ccc(NC(=O)Nc3ccnc4cccnc34)cc2o1 [SB-334867 (free base)]
- remaining activity at 3.75 µM ([1]; Well no.=6999, high concentration screen): 104%
- remaining activity at 1.25 µM ([2]; Well no.=6999, low concentration screen): 101%

SMILES: C[N+](C)(C)CCOC(=O)CBr [Bromoacetylcholine bromide]
- remaining activity at 3.75 µM ([1]; Well no.=181, high concentration screen): 98.9%
- remaining activity at 1.25 µM ([2]; Well no.=181, low concentration screen): 102%

SMILES: O=C1N[C@H](C(=O)O)CS1 [Procysteine]
- remaining activity at 3.75 µM ([1]; Well no.=3897, high concentration screen): 103%
- remaining activity at 1.25 µM ([2]; Well no.=3897, low concentration screen): 104%

SMILES: CCCCC[C@@H](/C=C/C=C\CCCCCCCCCC(=O)O)OO [15(S)-HPEDE]
- remaining activity at 3.75 µM ([1]; Well no.=4333, high concentration screen): 105%
- remaining activity at 1.25 µM ([2]; Well no.=4333, low concentration screen): 108%

SMILES: CN(C)CC[C@@H](c1ccc(Cl)cc1)c1ccccn1 [Dexchlorpheniramine (maleate)]
- remaining activity at 3.75 µM ([1]; Well no.=6653, high concentration screen): 101%
- remaining activity at 1.25 µM ([2]; Well no.=6653, low concentration screen): 103%

SMILES: COc1ccc2c(c1)c(CC(=O)O)c(C)n2C(=O)c1ccccc1 [1-benzoyl-5-methoxy-2-methylindole-3-acetic acid]
- remaining activity at 3.75 µM ([1]; Well no.=118, high concentration screen): 104%
- remaining activity at 1.25 µM ([2]; Well no.=118, low concentration screen): 102%

SMILES: O=c1cc(N2CCNCC2)oc2c(-c3ccccc3)cccc12 [LY 303511]
- remaining activity at 3.75 µM ([1]; Well no.=2467, high concentration screen): 106%
- remaining activity at 1.25 µM ([2]; Well no.=2467, low concentration screen): 102%

SMILES: O=C(/C=C/c1ccccc1)NC(NC(=S)Nc1cccc2cccnc12)C(Cl)(Cl)Cl (centres unmarked) [Salubrinal]
- remaining activity at 3.75 µM ([1]; Well no.=4877, high concentration screen): 99.5%
- remaining activity at 1.25 µM ([2]; Well no.=4877, low concentration screen): 98.9%

SMILES: Clc1cnc(Oc2ccc(Oc3ncc(Cl)cc3Cl)cc2)c(Cl)c1 [TCPOBOP]
- remaining activity at 3.75 µM ([1]; Well no.=1425, high concentration screen): 102%
- remaining activity at 1.25 µM ([2]; Well no.=1425, low concentration screen): 102%

SMILES: CO[C@H]1/C=C/O[C@@]2(C)Oc3c(C)c(O)c4c(O)c(cc(O)c4c3C2=O)NC(=O)/C(C)=C\C=C\[C@H](C)[C@H](O)[C@@H](C)[C@@H](O)[C@@H](C)[C@H](OC(C)=O)[C@@H]1C [RIFAMYCIN SV]
- remaining activity at 3.75 µM ([1]; Well no.=1987, high concentration screen): 97.9%
- remaining activity at 1.25 µM ([2]; Well no.=1987, low concentration screen): 105%

SMILES: COC(=O)C1=C(C)NC(C)=C(C(=O)OCCCN2CCC(c3ccccc3)(c3ccccc3)CC2)[C@H]1c1cccc([N+](=O)[O-])c1 [Niguldipine]
- remaining activity at 3.75 µM [1]: 100%
- remaining activity at 1.25 µM [2]: 105%

SMILES: CN(C)CC(=O)O [N-Methylsarcosine]
- remaining activity at 3.75 µM ([1]; Well no.=6873, high concentration screen): 102%
- remaining activity at 1.25 µM ([2]; Well no.=6873, low concentration screen): 104%

SMILES: COc1cc(OC)c(NC(=O)Nc2cc(C)on2)cc1Cl [PNU-120596]
- remaining activity at 3.75 µM ([1]; Well no.=4964, high concentration screen): 92.3%
- remaining activity at 1.25 µM ([2]; Well no.=4964, low concentration screen): 98.4%

SMILES: Cc1ccccc1C(=O)Nc1ccc(C(=O)N2CCCC(O)c3cc(Cl)ccc32)c(C)c1 (centres unmarked) [Tolvaptan]
- remaining activity at 3.75 µM ([1]; Well no.=7517, high concentration screen): 95.6%
- remaining activity at 3.75 µM ([1]; Well no.=8388, high concentration screen): 97.5%
- remaining activity at 1.25 µM ([2]; Well no.=7517, low concentration screen): 102%
- remaining activity at 1.25 µM ([2]; Well no.=8388, low concentration screen): 97.7%

SMILES: CCCCC[C@H](O)/C=C/C=C\C/C=C\C/C=C\CCCC(=O)O [15(S)-HETE]
- remaining activity at 3.75 µM ([1]; Well no.=4289, high concentration screen): 97.2%
- remaining activity at 1.25 µM ([2]; Well no.=4289, low concentration screen): 102%

SMILES: c1ccc2c(CC3=NCCN3)cccc2c1 [Naphazoline (hydrochloride)]
- remaining activity at 3.75 µM ([1]; Well no.=7529, high concentration screen): 97.5%
- remaining activity at 1.25 µM ([2]; Well no.=7529, low concentration screen): 96.6%

SMILES: CC(C)OC(=O)C(C(=O)OC(C)C)=C1SC=CS1 [Malotilate]
- remaining activity at 3.75 µM ([1]; Well no.=8884, high concentration screen): 84.3%
- remaining activity at 1.25 µM ([2]; Well no.=8884, low concentration screen): 85.8%

SMILES: O=C(NCCN1CCOCC1)c1ccc(Cl)cc1 [Moclobemide]
- remaining activity at 3.75 µM ([1]; Well no.=4640, high concentration screen): 98.5%
- remaining activity at 1.25 µM ([2]; Well no.=4640, low concentration screen): 99.1%

SMILES: CC(C)(O)c1ccccc1CC[C@@H](SCC1(CC(=O)O)CC1)c1cccc(/C=C/c2ccc3ccc(Cl)cc3n2)c1 [Montelukast (sodium)]
- remaining activity at 3.75 µM ([1]; Well no.=6325, high concentration screen): 98%
- remaining activity at 1.25 µM ([2]; Well no.=6325, low concentration screen): 105%

SMILES: CC(C)(C)c1[nH]cnc1/C=c1\[nH]c(=O)/c(=C/c2ccccc2)[nH]c1=O [Plinabulin (NPI-2358)]
- remaining activity at 3.75 µM ([1]; Well no.=4834, high concentration screen): 102%
- remaining activity at 1.25 µM ([2]; Well no.=4834, low concentration screen): 99%

SMILES: COc1ccc2[nH]c(I)c(CCNC(C)=O)c2c1 [2-Iodomelatonin]
- remaining activity at 3.75 µM ([1]; Well no.=622, high concentration screen): 99.7%
- remaining activity at 1.25 µM ([2]; Well no.=622, low concentration screen): 99.9%
